Measurements reported in PubChem BioAssay AID288 (DTP/NCI, 2004).
Records with an inconclusive call do not appear.

System: BDF1 mice, M5076 sarcoma s.c., survival/tumor T/C
Assay: NCI In Vivo Anticancer Drug Screen. Data for tumor model Sarcoma M5076 (subcutaneous) in B6D2F1 (BDF1) mice
Experimental: The antitumor activity of compounds was measured in mice bearing transplantable tumors. Survival or tumor size were measured and the results are expressed as the measurement made in the treated group (T) divided by the measurement made in the vehicle treated control group (C). The tumor model used in this assay is Sarcoma M5076 (subcutaneous) in B6D2F1 (BDF1) mice

[1] = endpoint: median survival time, dose: 50.0 mg/kg/injection, schedule: Q01DX009 (ip), vehicle: saline with Tween-80, higher = longer survival
[2] = endpoint: median survival time, dose: 200.0 mg/kg/injection, schedule: Q01DX009 (ip), vehicle: saline with Tween-80, higher = longer survival
[3] = endpoint: median survival time, dose: 100.0 mg/kg/injection, schedule: Q01DX009 (ip), vehicle: saline with Tween-80, higher = longer survival
[4] = endpoint: median tumor weight (est.), dose: 50.0 mg/kg/injection, schedule: Q01DX009 (ip), vehicle: saline with Tween-80, higher = larger tumour
[5] = endpoint: median tumor weight (est.), dose: 100.0 mg/kg/injection, schedule: Q01DX009 (ip), vehicle: saline with Tween-80, higher = larger tumour
[6] = endpoint: median tumor weight (est.), dose: 200.0 mg/kg/injection, schedule: Q01DX009 (ip), vehicle: saline with Tween-80, higher = larger tumour

| Compound | T/C [1] | T/C [2] | T/C [3] | T/C [4] | T/C [5] | T/C [6] | also measured |
| --- | --- | --- | --- | --- | --- | --- | --- |
| CN(C)S(=O)(=O)c1ccc(CCCCc2ccc(N3C(N)=NC(N)=NC3(C)C)cc2Cl)c(Cl)c1 | – | – | – | – | – | – | T/C (endpoint: median survival time, dose: 38.0 mg/kg/injection, schedule: Q01DX009 (ip), vehicle: saline with Tween-80, higher = longer survival): 100 % of control |
| CNC(=O)c1ccccc1C1(O)c2ccccc2CCc2ccccc21 | 109 % of control | 100 % of control | – | – | – | – | – |
| CSc1ccc(NC(=O)NNP(=S)(Oc2ccc(C(C)(C)C)cc2)Oc2ccc(C(C)(C)C)cc2)cc1 | 102 % of control | 87 % of control | 107 % of control | 92 % of control | 83 % of control | 92 % of control | – |
| Cc1ccc(C(=O)N=Nc2c(Cl)c(O)c3ccccc3c2O)cc1 | 89 % of control | – | – | 80 % of control | 88 % of control | – | T/C (endpoint: median survival time, dose: 12.5 mg/kg/injection, schedule: Q01DX009 (ip), vehicle: saline with Tween-80, higher = longer survival): 113 % of control; T/C (endpoint: median survival time, dose: 25.0 mg/kg/injection, schedule: Q01DX009 (ip), vehicle: saline with Tween-80, higher = longer survival): 110 % of control; T/C (endpoint: median tumor weight (est.), dose: 12.5 mg/kg/injection, schedule: Q01DX009 (ip), vehicle: saline with Tween-80, higher = larger tumour): 62 % of control; T/C (endpoint: median tumor weight (est.), dose: 25.0 mg/kg/injection, schedule: Q01DX009 (ip), vehicle: saline with Tween-80, higher = larger tumour): 120 % of control |
| COc1ccc(Cl)cc1NC(=O)NNC(=O)C(=O)Nc1ccc(F)cc1 | 106 % of control | 113 % of control | 106 % of control | 87 % of control | – | 115 % of control | – |
| Nc1ncnc2c1ccn2C1OC(CO)C(O)C1O (stereo not given) | – | – | – | – | – | – | T/C (endpoint: mean tumor weight, dose: 0.75 mg/kg/injection, schedule: Q02DX011 (ip), vehicle: saline, higher = larger tumour): 117 % of control; T/C (endpoint: mean tumor weight, dose: 1.5 mg/kg/injection, schedule: Q02DX011 (ip), vehicle: saline, higher = larger tumour): 101 % of control; T/C (endpoint: median tumor weight (est.), dose: 0.38 mg/kg/injection, schedule: Q02DX011 (ip), vehicle: saline, higher = larger tumour): 82 % of control; T/C (endpoint: median tumor weight (est.), dose: 0.75 mg/kg/injection, schedule: Q02DX011 (ip), vehicle: saline, higher = larger tumour): 168 % of control; T/C (endpoint: median tumor weight (est.), dose: 1.5 mg/kg/injection, schedule: Q02DX011 (ip), vehicle: saline, higher = larger tumour): 110 % of control |
| Cc1nc(N)nc(N)c1-c1ccc(Cl)c(Cl)c1 | – | – | – | – | – | – | T/C (endpoint: median survival time, dose: 1.5 mg/kg/injection, schedule: Q01DX009 (ip), vehicle: normal media, higher = longer survival): 105 % of control |
| COc1cc2c[n+](C)c3c4cc5c(cc4ccc3c2cc1OC)OCO5 | – | – | – | – | – | – | T/C (endpoint: mean tumor weight, dose: 10.0 mg/kg/injection, schedule: Q02DX011 (ip), vehicle: Klucel (hydroxypropylcellulose) (HPC), higher = larger tumour): 73 % of control; T/C (endpoint: median tumor weight (est.), dose: 10.0 mg/kg/injection, schedule: Q02DX011 (ip), vehicle: Klucel (hydroxypropylcellulose) (HPC), higher = larger tumour): 91 % of control; T/C (endpoint: median tumor weight (est.), dose: 20.0 mg/kg/injection, schedule: Q02DX011 (ip), vehicle: Klucel (hydroxypropylcellulose) (HPC), higher = larger tumour): 56 % of control |
| CC[C@](O)(C(=O)O)c1cc2n(c(=O)c1CO)Cc1cc3ccccc3nc1-2 | – | – | – | – | – | – | T/C (endpoint: mean tumor weight, dose: 1.13 mg/kg/injection, schedule: Q02DX011 (ip), vehicle: saline, higher = larger tumour): 95 % of control; T/C (endpoint: mean tumor weight, dose: 2.25 mg/kg/injection, schedule: Q02DX011 (ip), vehicle: saline, higher = larger tumour): 61 % of control; T/C (endpoint: mean tumor weight, dose: 4.5 mg/kg/injection, schedule: Q02DX011 (ip), vehicle: saline, higher = larger tumour): 25 % of control; T/C (endpoint: median tumor weight (est.), dose: 1.13 mg/kg/injection, schedule: Q02DX011 (ip), vehicle: saline, higher = larger tumour): 97 % of control; T/C (endpoint: median tumor weight (est.), dose: 2.25 mg/kg/injection, schedule: Q02DX011 (ip), vehicle: saline, higher = larger tumour): 96 % of control; T/C (endpoint: median tumor weight (est.), dose: 4.5 mg/kg/injection, schedule: Q02DX011 (ip), vehicle: saline, higher = larger tumour): 44 % of control |
| O=C(N/N=C\c1cc(Br)cc(Br)c1O)N/N=C/c1cc(Br)cc(Br)c1O | – | – | – | – | – | – | T/C (endpoint: median survival time, dose: 200.0 mg/kg/injection, schedule: Q04DX003 (ip), vehicle: saline with Tween-80, higher = longer survival): 111 % of control; T/C (endpoint: median survival time, dose: 400.0 mg/kg/injection, schedule: Q04DX003 (ip), vehicle: saline with Tween-80, higher = longer survival): 112 % of control; T/C (endpoint: median survival time, dose: 800.0 mg/kg/injection, schedule: Q04DX003 (ip), vehicle: saline with Tween-80, higher = longer survival): 97 % of control |
| CC1(C)OC(C)(C)c2c1nnc(-c1ccccc1)[n+]2[O-] | 93 % of control | 103 % of control | 105 % of control | – | 84 % of control | 60 % of control | – |
| CCc1ccc(NC(=O)/C=C\C(=O)O)cc1 | 86 % of control | 91 % of control | 105 % of control | 112 % of control | 85 % of control | 106 % of control | – |
